# ChEMBL document CHEMBL1201862, “PubChem BioAssay data set” (2004)
# The source made the active and inactive calls.
# Key:
# [1] = target: Small ubiquitin-related modifier 2 (Homo sapiens, UniProt P61956); assay: disruption of SUMO2 interaction with SIM peptide – biochemical, fluorescence polarization, uHTS hits, selectivity assay for SUMO1 interaction inhibitor project, dose response (AID 624385); format: functional; settings: read-out: IC50_Mean
# [2] = target: Small ubiquitin-related modifier 1 (Homo sapiens, UniProt P63165); assay: SUMO1 protein interaction blockers, potency – biochemical, fluorescence polarization, uHTS hits, dose response (AID 624382); format: functional; settings: read-out: IC50_Mean
# Small ubiquitin-related modifier 1, sequence (P63165 whole entry): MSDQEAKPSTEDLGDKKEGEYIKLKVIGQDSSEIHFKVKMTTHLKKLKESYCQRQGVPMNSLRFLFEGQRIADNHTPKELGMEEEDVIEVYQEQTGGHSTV
# cells [3] = format: functional, cell-based
# [4] = target: T1, Serine/threonine-protein phosphatase (Candida dubliniensis (strain CD36 / CBS 7987 / NCPF 3949 / NRRLY-17841) (Yeast), UniProt B9W6M3); assay: blockers of CaCl2-induced CDRE-lacZ signaling – S. cerevisiae, luminescence, secondary, dose response (AID 2388); format: functional, cell-based;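 note: yeast reporter cells carrying a calcineurin-responsive lacZ construct stimulated with calcium chloride; luminescent beta-galactosidase reporter signal in whole cells rather than isolated phosphatase activity; potency for inhibition where a drop in reporter signal means calcineurin blockade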
# T1 sequence (B9W6M3 whole entry): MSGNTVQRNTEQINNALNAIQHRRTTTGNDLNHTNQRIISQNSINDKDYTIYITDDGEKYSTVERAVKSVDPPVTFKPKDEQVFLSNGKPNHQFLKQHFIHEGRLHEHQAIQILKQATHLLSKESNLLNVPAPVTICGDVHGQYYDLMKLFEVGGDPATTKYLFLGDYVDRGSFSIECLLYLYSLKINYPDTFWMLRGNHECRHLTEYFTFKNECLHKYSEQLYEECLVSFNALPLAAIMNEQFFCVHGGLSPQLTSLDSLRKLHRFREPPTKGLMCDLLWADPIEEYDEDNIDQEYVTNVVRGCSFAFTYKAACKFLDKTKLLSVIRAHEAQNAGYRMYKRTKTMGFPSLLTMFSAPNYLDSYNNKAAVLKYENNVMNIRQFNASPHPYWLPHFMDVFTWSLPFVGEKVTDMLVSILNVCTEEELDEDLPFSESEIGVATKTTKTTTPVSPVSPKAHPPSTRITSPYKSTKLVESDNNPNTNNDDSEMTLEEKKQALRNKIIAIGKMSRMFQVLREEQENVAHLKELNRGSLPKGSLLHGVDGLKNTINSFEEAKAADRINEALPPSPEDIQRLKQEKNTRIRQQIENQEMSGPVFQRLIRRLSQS
# cells [5] = format: functional, cell-based; remark: listed apart in the source
# [6] = target: Photoreceptor-specific nuclear receptor (Homo sapiens, UniProt Q9Y5X4); format: functional;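 note: potency for compounds that break the NR2E3 corepressor complex and count as activators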
# Photoreceptor-specific nuclear receptor, sequence (Q9Y5X4 whole entry): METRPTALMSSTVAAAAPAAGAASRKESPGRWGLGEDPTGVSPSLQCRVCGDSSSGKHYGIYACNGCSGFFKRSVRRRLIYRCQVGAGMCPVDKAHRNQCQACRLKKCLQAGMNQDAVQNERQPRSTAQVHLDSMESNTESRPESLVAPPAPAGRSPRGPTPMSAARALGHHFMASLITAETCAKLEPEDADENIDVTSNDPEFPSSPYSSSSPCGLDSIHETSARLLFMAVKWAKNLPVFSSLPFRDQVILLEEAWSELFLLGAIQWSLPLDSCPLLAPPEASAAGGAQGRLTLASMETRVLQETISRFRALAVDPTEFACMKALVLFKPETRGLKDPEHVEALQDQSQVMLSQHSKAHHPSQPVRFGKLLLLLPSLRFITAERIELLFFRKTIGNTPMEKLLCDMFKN
# [7] = loss of viability in HepG2 cells – cell-based, CellTiter-Glo, cherry-picked, cytotoxicity control for Shn3 inhibitor project, dose response (AID 624134); format: functional
# [8] = blockade of melanocortin 4 receptor signaling – cell-based, plate reader, cherry pick, counter-screen for LGR2 antagonist project, dose response (AID 743444); format: functional;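 note: transfected HEK 293 cells stimulated with alpha-MSH peptide; potency of inhibitors of the alpha-MSH evoked signal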
# [9] = A549 cell cytotoxicity, dose response, cytotoxicity control, plate reader, cherry-pick, antagonist series (AID 743412); format: functional, cell-based
# [10] = target: T2, Replicative DNA helicase DnaB (Mycobacterium tuberculosis, UniProt P9WMR3); assay: DnaB Intein secondary assay Measured in Biochemical System Using Plate Reader - 2047-04_Inhibitor_Dose_DryPowder_Activity. [Related pubchem assays (depositor defined):AID2223]
# T2 sequence (P9WMR3 whole entry): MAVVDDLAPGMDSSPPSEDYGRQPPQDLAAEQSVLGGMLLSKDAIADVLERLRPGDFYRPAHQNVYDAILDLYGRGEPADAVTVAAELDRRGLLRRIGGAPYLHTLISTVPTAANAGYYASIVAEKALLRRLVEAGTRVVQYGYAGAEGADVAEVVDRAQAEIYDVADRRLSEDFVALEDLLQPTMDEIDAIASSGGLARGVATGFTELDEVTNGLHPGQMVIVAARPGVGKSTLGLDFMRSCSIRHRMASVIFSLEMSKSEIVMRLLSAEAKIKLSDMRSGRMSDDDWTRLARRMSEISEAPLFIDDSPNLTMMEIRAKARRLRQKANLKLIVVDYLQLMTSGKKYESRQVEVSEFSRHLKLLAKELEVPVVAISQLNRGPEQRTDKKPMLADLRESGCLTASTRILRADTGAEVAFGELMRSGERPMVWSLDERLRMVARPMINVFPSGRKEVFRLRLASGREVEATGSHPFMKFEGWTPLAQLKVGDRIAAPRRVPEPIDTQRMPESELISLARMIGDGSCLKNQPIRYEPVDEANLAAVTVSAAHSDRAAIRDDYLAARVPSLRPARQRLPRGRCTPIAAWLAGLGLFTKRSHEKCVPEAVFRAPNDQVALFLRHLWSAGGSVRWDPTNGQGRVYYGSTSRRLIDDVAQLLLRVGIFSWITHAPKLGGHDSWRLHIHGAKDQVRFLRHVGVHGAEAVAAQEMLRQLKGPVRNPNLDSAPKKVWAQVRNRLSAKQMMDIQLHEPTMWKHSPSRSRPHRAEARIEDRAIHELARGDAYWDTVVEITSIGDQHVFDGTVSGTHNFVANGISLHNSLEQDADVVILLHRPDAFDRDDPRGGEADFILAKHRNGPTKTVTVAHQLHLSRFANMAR
# [11] = blockers of bursicon-stimulated LGR2 cAMP reporter – cell-based, HEK293, CRE-luciferase reporter, cherry pick, set 2, dose response (AID 743343); format: functional;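 note: transfected cells were stimulated with diluted bursicon conditioned medium after compound addition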
# [12] = target: Dual specificity protein phosphatase 3 (Homo sapiens, UniProt P51452); assay: VHR1 phosphatase inhibitors, primary screen, biochemical, absorbance, uHTS (AID 1654)
# Dual specificity protein phosphatase 3, sequence (P51452 whole entry): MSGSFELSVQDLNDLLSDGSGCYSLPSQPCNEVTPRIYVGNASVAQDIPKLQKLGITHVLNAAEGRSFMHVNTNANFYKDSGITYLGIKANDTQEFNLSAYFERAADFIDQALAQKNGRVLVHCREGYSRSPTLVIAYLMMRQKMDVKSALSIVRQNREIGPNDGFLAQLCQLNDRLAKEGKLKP
# Caspase-8 = Caspase-8 (Homo sapiens, UniProt Q14790); assay: inhibitors of purified CASP8 protease – biochemical, Z-IETD-R110 fluorescence, cherry-picked samples, selectivity assay for caspase-6 inhibitor project, dose response (AID 743294)
# Caspase-8, sequence (Q14790 217-374 limits assumed): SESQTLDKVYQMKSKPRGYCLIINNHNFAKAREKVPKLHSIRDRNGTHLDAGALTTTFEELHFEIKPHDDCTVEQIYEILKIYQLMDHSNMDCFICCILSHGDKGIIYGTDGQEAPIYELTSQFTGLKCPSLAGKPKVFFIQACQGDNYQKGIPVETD
# Caspase-8, sequence (Q14790 385-479 limits assumed): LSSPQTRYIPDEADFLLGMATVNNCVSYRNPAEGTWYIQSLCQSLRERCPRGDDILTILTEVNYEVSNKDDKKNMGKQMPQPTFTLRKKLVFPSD
# [13] = test system: Streptococcus sp. 'group A'; assay: Streptococcus pyogenes SK(-)GAS viability under kanamycin – luminescence, BacTiterGlo, confirmation, counter-screen for streptokinase expression inhibitor project, dose response (AID 1900); format: functional, organism-based
# BJ = assay: BJ-TERT fibroblast viability loss – cell-based, RAS-independent, luminescence, dose response (AID 1933); format: functional; settings: Homo sapiens
# Cytochrome P450 3A4 = Cytochrome P450 3A4 (Homo sapiens, UniProt P08684);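 note: CYP3A4 tested as one member of a cytochrome P450 panel screen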
# Cytochrome P450 3A4, sequence (P08684 whole entry): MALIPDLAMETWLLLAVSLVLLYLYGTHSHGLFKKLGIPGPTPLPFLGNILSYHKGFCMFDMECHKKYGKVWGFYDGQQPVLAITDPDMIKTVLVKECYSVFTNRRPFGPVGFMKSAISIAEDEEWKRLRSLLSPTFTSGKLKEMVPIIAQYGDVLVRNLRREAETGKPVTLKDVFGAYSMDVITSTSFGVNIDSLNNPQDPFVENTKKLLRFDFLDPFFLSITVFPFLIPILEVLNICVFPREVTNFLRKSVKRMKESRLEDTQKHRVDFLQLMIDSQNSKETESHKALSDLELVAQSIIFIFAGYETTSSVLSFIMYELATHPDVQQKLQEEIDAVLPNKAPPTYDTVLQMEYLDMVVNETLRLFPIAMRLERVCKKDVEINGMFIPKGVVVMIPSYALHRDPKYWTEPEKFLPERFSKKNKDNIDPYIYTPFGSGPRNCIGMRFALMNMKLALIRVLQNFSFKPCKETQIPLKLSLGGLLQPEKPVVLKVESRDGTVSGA
# [14] = target: T3, Calpain-2 catalytic subunit (Sus scrofa, UniProt P43367); assay: m-calpain protease blockers, concentration series – biochemical, fluorogenic peptide substrate, dose response (AID 1420); format: functional
# T3 sequence (P43367 whole entry): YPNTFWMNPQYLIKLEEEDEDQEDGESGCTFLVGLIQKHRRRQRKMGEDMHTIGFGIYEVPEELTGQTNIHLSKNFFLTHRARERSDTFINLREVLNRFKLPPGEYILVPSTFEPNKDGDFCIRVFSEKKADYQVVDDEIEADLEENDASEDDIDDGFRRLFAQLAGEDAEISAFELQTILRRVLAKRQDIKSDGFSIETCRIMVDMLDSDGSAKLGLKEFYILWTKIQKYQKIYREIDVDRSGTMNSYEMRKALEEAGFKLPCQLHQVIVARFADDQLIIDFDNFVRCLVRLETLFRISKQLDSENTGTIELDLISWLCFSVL
# Small ubiquitin-related modifier 2, sequence (P61956 whole entry): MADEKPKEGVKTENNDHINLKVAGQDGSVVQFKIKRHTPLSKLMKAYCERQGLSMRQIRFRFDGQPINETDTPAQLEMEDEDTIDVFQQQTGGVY
smiles,measurement,setting,value
COc1ccc(NS(=O)(=O)c2ccc3c(c2)[C@H]2C=CC[C@H]2[C@@H](c2ccc(C(=O)O)cc2)N3)cc1,IC50,[1],4.06 µM (active)
same,IC50,[2],4.98 µM (active)
CCC(=O)NC(c1ccc(OC)cc1)c1cc(Cl)c2cccnc2c1O (configuration not stated),EC50,cells [3],> 350 µM (not active)
same,EC50,[4],> 180 µM (inactive)
same,EC50,cells [5],19 µM (active)
Cn1nc(-c2ccccn2)nc2c(=O)n(C)c(=O)nc1-2,IC50,[6],> 39.8 µM (not active)
same,AC50,[7],5.81 µM (active)
same,AC50,[8],2.73 µM (active)
same,AC50,[9],3.15 µM (active)
same,AC50,[10],0.503 µM (active)
same,AC50,[11],2.57 µM (active)
same,IC50,[12],< 1.23 µM (inactive)
same,AC50,Caspase-8,0.436 µM (active)
CCCCCCCCCCn1c2c(c(=N)c3c1CCC3)CCC2,EC50,[13],5.58 µM (active)
same,EC50,BJ,3.26 µM (inconclusive)
same,AC50,Cytochrome P450 3A4,31.6 µM (inconclusive)
same,IC50,[14],6.72 µM (active)
